Test results reported in US10654860B2, “Tricyclic rho kinase inhibitors” (BRISTOL-MYERS SQUIBB COMPANY, priority 2016, dated 2020).
Like-named read-outs stand apart in the source and are kept apart here.

Tests used:
[1] = system: spontaneously hypertensive rat, renal hypertensive rat and deoxycortisone acetate salt hypertensive rat models; details: cited from earlier work
neointimal formation = details: rats, balloon injury model; cited from earlier work
[2] = system: congestive heart failure in Dahl salt-sensitive rats; details: cited from earlier work
[3] = system: IL-1 beta-induced coronary stenosis; details: long term treatment, porcine model; cited from earlier work
rat stroke model = details: cited from earlier work
ROCK2 = ROCK2 (Homo sapiens (Human), UniProt O75116); assay: ROCK2 kinase inhibition assay (LABCHIP peptide phosphorylation); format: biochemical; details: 5 μM ATP, 1.5 μM peptide substrate
Sequence of ROCK2 (O75116 whole entry, species assumed): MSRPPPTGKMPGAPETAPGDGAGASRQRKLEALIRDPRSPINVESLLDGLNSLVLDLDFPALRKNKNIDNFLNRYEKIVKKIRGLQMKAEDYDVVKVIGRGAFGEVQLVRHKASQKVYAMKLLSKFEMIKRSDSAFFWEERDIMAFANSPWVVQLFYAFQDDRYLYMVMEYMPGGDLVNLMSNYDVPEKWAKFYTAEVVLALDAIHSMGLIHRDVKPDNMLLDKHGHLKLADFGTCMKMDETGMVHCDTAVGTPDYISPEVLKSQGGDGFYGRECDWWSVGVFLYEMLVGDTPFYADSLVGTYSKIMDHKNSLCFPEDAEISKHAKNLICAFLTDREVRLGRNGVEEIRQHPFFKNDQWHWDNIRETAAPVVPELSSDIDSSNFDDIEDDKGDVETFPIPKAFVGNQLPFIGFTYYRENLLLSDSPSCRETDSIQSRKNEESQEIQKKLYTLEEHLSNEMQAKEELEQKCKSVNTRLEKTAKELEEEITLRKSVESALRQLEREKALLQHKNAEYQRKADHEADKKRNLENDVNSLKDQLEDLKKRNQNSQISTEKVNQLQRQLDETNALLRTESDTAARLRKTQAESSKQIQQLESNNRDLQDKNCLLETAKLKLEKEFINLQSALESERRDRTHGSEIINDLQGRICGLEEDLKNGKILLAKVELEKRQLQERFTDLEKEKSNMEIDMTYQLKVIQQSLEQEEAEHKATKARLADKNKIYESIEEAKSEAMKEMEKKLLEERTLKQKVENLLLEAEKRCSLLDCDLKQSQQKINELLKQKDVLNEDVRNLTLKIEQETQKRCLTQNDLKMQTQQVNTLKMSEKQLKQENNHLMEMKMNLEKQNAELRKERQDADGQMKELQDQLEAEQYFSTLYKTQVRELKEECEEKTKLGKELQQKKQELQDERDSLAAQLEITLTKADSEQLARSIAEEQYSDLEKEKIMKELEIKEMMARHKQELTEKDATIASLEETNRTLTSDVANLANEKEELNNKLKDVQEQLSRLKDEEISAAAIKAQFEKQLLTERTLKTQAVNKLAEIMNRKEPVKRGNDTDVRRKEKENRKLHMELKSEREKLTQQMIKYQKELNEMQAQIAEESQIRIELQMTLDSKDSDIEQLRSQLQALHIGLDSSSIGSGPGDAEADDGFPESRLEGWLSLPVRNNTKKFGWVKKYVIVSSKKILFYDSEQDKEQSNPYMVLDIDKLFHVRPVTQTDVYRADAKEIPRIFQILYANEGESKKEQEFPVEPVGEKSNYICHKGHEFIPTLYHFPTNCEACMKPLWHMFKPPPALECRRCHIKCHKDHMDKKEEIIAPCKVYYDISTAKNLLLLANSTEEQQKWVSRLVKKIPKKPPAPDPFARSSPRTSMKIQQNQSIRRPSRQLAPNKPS
Procedure: The effectiveness of compounds of the present invention as ROCK inhibitors can be determined in a 30 μL, assay containing 20 mM HEPES, pH 7.5, 20 mM MgCl2, 0.015% Brij-35, 4 mM DTT, 5 μM ATP and 1.5 μM peptide substrate (FITC-AHA-AKRRRLSSLRA-OH). Compounds were dissolved in DMSO so that the final concentration of DMSO was <2%, and the reaction was initiated with Rho kinase variants. After incubation, the reaction was terminated by the addition of EDTA and the phosphorylated and non-phosphorylated peptides separated using a LABCHIP® 3000 Reader (Caliper Life Sciences). […] Compounds were tested in dose-response format, and the inhibition of kinase activity was calculated at each concentration of compound. The inhibition data were fit using a curve-fitting program to determine the IC50; i.e., the concentration of compound required to inhibit 50% of kinase activity.
Representative Examples were tested in the ROCK2 assay described above and found having ROCK2 inhibitory activity. The ranges of the ROCK2 IC50 values are as follows: ROCK2 IC50: ++++(<10 nM)+++(10-100 nM)++(100-500 nM)+(500-2000 nM)

C[C@@H](N)[C@H]1CC[C@H](C(=O)Nc2ccncc2)CC1 [Example Y-27632, Y-27632]
blood pressure ([1]; control rats): only a minor effect | blood pressure ([1]; three rat models of hypertension): significantly decrease | neointimal formation (neointimal formation): inhibited | ventricular hypertrophy, fibrosis and function [2]: improve

O=S(=O)(c1cccc2cnccc12)N1CCCNCC1 [fasudil]
coronary constrictive remodeling [3]: promote a regression | coronary stenosis [3]: progressively reduce | infarct size (rat stroke model): reduce | neurologic deficit (rat stroke model): reduce

O=C1C(Nc2cccc(-c3cnco3)c2)CCN1c1ccc2c(n1)OCc1n[nH]cc1-2 (racemic) [Example 35, 1-(2,4-dihydropyrazolo[4′,3′:4,5]pyrano[2,3-b]pyridin-7-yl)-3-((3-(oxazol-5-yl)phenyl)amino)pyrrolidin-2-one]
IC50 (ROCK2): 500 to 2000 nM

COc1cc(F)cc(CN2CCN(c3ccc4c(n3)OCc3n[nH]cc3-4)C2=O)c1 [Example 18, 1-(2,4-dihydropyrazolo[4′,3′:4,5]pyrano[2,3-b]pyridin-7-yl)-3-(3-fluoro-5-methoxybenzyl)imidazolidin-2-one]
IC50 (ROCK2): 10 to 100 nM

COc1cccc(CN2CCN(c3ccc4c(n3)CCc3n[nH]cc3-4)C2=O)c1 [Example 8, 1-(4,5-dihydro-2H-pyrazolo[4,3-f]quinolin-7-yl)-3-(3-methoxybenzyl)imidazolidin-2-one]
IC50 (ROCK2): < 10 nM

NC(=O)c1cccc(CN2CCN(c3ccc4c(n3)OCc3n[nH]cc3-4)C2=O)c1 [Example 23, ((3-(2,4-dihydropyrazolo[4′,3′:4,5]pyrano[2,3-b]pyridin-7-yl)-2-oxoimidazolidin-1-yl)methyl)benzamide]
IC50 (ROCK2): 10 to 100 nM

O=C1N(c2ccc3c(c2)CCc2n[nH]cc2-3)CCC12Cc1ccccc1N2 (single isomer, unassigned) [Example 16, 1′-(4,5-dihydro-2H-benzo[e]indazol-7-yl)spiro[indoline-2,3′-pyrrolidin]-2′-one]
IC50 (ROCK2): 10 to 100 nM

COc1cccc(CN2CCN(c3ccc4c(n3)OCc3n[nH]cc3-4)C2=O)c1F [Example 27, 1-(2,4-dihydropyrazolo[4′,3′:4,5]pyrano[2,3-b]pyridin-7-yl)-3-(2-fluoro-3-methoxybenzyl)imidazolidin-2-one]
IC50 (ROCK2): 100 to 500 nM

O=C1N(Cc2ccc(F)c(F)c2)CCN1c1ccc2c(n1)OCc1n[nH]cc1-2 [Example 29, 1-(3,4-difluorobenzyl)-3-(2,4-dihydropyrazolo[4′,3′:4,5]pyrano[2,3-b]pyridin-7-yl)imidazolidin-2-one]
IC50 (ROCK2): 100 to 500 nM
